Measured values as given in patent publication US8822468B2 (Novartis AG, priority 2008, dated 2014).

target: T1, cMET receptor tyrosine kinase (GST-cMET (969-1390)) (Homo sapiens, UniProt P08581); assay: EPK cMET profiling assay (LanthaScreen TR-FRET antibody based kinase phosphorylation assay); assay type: biochemical; details: purified recombinant GST-cMET (969-1390), 2 μM ATP, 50 nM Fluorescein-PolyEAY, 60 minutes at room temperature; read-out: c-Met IC50
T1 construct: made in house
Description: A number of compounds of the present invention were assayed in an antibody based kinase phosphorylation assay as follows.
EPK cMET Profiling Assay:
The EPK kinase assay for cMET receptor tyrosine kinase was developed, using the purified recombinant GST-fusion protein, containing the cytoplasmic domain of the enzyme. GST-cMET (969-1390) was purified by affinity chromatography.
The kinase assay is based on the LanthaScreen™ technology. LanthaScreen™ is the detection of Time-Resolved Fluorescence Resonance Energy Transfer (TR-FRET) using lanthanide chelates to measure interactions between various binding partners. In a TR-FRET kinase assay, a long-lifetime lanthanide donor species is conjugated to an antibody that specifically binds to a phosphorylated product of a kinase reaction that is labeled with a suitable acceptor fluorophore. This antibody-mediated interaction brings the lanthanide donor and the acceptor into proximity such that resonance energy transfer can take place, resulting in a detectible increase in the FRET signal.
The kinase reactions were performed in 384 well microtiter plates in a total reaction volume of 9.05 μL. The assay plates were prepared with 0.05 μL per well of test compound in the appropriate test concentration, as described under “preparation of compound dilutions”. The reactions were started by combining 4.5 μL of ATP solution with 4.5 μL of enzyme-substrate mix (consisting of kinase and substrate). The final concentrations in the kinase reactions were 35 mM Tris/HCl, 1 mM DTT, 0.025% Tween20, 10 μM sodium orthovanadate, 0.25% BSA, 0.6% DMSO, 10 mM MgCl2, 3 mM MnCl2, 2 μM ATP, 50 nM Fluorescein-PolyEAY, and 0.3 nM enzyme.
The reactions were incubated for 60 minutes at room temperature and stopped by adding 4.5 μL of stop buffer (50 mM EDTA, 0.04% NP40, 20 mM Tris/HCl).
Subsequently 4.5 μL of detection mix (50 mM Tris/HCl, 2 mM DTT, 0.05% Tween20, 20 μM sodium orthovanadate, 1% BSA, 1.72 μg/ml Tb-PY20 antibody) were added to the stopped reactions. After 30 minutes incubation at room temperature, the plates were measured in a BMG Pherastar fluorescence reader. The effect of compound on the enzymatic activity was in all assays obtained from the linear progress curves and determined from one reading (end point measurement).
Test compounds were dissolved in DMSO (10 mM) and transferred into 1.4 mL flat bottom or V-shaped Matrix tubes carrying a unique 2D matrix. The stock solutions were stored at −20° C. if not used immediately. For the test procedure the vials were defrosted and identified by a scanner whereby a working sheet was generated that guided the subsequent working steps.
Compound dilutions were made in 96 well plates. This format enabled the assay of maximally 40 individual test compounds at 8 concentrations (single points) including 4 reference compounds. The dilution protocol included the production of “pre-dilution plates”, “master plates” and “assay plates”.
Pre-dilution plates: 96 polypropylene well plates were used as pre-dilution plates. A total of 4 pre-dilution plates were prepared including 10 test compounds each on the plate positions A1-A10, one standard compound at A11 and one DMSO control at A12. All dilution steps were done on a HamiltonSTAR robot.
Master plates: 100 μL of individual compound dilutions including standard compound and controls of the 4 “pre-dilution plates” were transferred into a 384 “master plate” including the following concentrations 1,820, […], 182, 54.6, 18.2, 5.46, 1.82 and 0.546 μM, respectively in 90% of DMSO.
Assay plates: Identical “assay plates” were then prepared by pipetting 50 nL each of compound dilutions of the “master plates” into 384-well “assay plates” by means of a HummingBird 384-channel dispenser. These plates were used directly for the assay which was performed in a total volume of 9.05 μL. This led to a final compound concentration of 10, 3.0, 1.0, 0.3, 0.1, 0.03, 0.01 and 0.003 μM and a final DMSO concentration of 0.5% in the assay.

T1 sequence (P08581 969-1390): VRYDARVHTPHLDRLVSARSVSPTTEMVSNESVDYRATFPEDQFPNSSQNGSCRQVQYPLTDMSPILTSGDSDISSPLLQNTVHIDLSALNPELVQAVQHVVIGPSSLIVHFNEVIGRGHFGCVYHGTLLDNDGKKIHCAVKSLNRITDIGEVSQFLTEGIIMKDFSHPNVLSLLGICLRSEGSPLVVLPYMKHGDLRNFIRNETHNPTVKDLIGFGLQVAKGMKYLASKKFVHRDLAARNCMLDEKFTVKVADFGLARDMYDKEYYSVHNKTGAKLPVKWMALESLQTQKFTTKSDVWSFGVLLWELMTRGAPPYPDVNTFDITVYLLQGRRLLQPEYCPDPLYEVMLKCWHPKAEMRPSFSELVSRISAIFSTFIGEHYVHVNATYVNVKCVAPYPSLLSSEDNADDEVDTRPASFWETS

| SMILES | IC50 [nM] |
| --- | --- |
| Cn1cc(-c2ccc3ncc(C(O)c4cc5cccnc5cc4F)n3n2)cn1 (racemic) [Example 248, (rac)-7-Fluoro-quinolin-6-yl)-[6-(1-methyl-1H-pyrazol-4-yl)-imidazo[1,2-b]pyridazin-3-yl]-methanol] | 370 |
| CCn1cc(-c2ccc3ncc(C(O)c4cc5cccnc5cc4F)n3n2)cn1 (racemic) [Example 249, (rac)-[6-(1-Ethyl-1H-pyrazol-4-yl)-imidazo[1,2-b]pyridazin-3-yl]-(7-fluoro-quinolin-6-yl)methanol] | 380 |
| OC(c1cc2cccnc2cc1F)c1cnc2ccc(-c3cn[nH]c3)nn12 (racemic) [Example 252, (rac)-(7-Fluoro-quinolin-6-yl)-[6-(1H-pyrazol-4-yl)-imidazo[1,2-b]pyridazin-3-yl]-methanol] | 280 |
| CC(c1cc2cccnc2cc1F)c1cnc2ccc(-c3cnn(C)c3)nn12 (racemic) [Example 253, (rac)-7-Fluoro-6-{1-[6-(1-methyl-1H-pyrazol-4-yl)-imidazo[1,2-b]pyridazin-3-yl]-ethyl}-quinoline] | 13 |
| CC(c1cc2cccnc2cc1F)c1cnc2ccc(-c3cnn(CCO)c3)nn12 (racemic) [Example 255] | 36 |
| CC(c1cc2cccnc2cc1F)c1cnc2ccc(-c3cnn(C4CCNCC4)c3)nn12 (racemic) [Example 258, (rac)-7-Fluoro-6-{1-[6-(1-piperidin-4-yl-1H-pyrazol-4-yl)-imidazo[1,2-b]pyridazin-3-yl]-ethyl}-quinoline] | 43 |
| CC(c1cc2cccnc2cc1F)c1cnc2ccc(-c3cnn(C4CCN(C)CC4)c3)nn12 (racemic) [Example 259, (rac)-7-Fluoro-6-(1-{6-[1-(1-methyl-piperidin-4-yl)-1H-pyrazol-4-yl]-imidazo[1,2-b]pyridazin-3-yl}-ethyl)-quinoline] | 23 |
| CNC1CCN(c2ccc3ncc(Cc4cc5cccnc5cc4F)n3n2)C1 (racemic) [Example 260, (rac)-{1-[3-(7-fluoro-quinolin-6-ylmethyl)-imidazo[1,2-b]pyridazin-6-yl]-pyrrolidin-3-yl}-methylamine] | 5.2 |
| CC(O)(c1c(F)cc2ncccc2c1F)c1cnc2ccc(-c3cnn(CCO)c3)nn12 (racemic) [Example 267, (rac)-1-(5,7-Difluoro-quinolin-6-yl)-1-{6-[1-(2-hydroxy-ethyl)-1H-pyrazol-4-yl]-imidazo[1,2-b]pyridazin-3-yl}-ethanol] | 260 |
| CC(c1cc2cnn(C)c2cc1F)c1cnc2ccc(-c3cnn(C)c3)nn12 (racemic) [Example 278, (rac)-3-[1-(6-Fluoro-1-methyl-1H-indazol-5-yl)-ethyl]-6-(1-methyl-1H-pyrazol-4-yl)-imidazo[1,2-b]pyridazine] | 21 |
| CC(c1cc2cnn(C)c2cc1F)c1cnc2ccc(-c3cnn(CCO)c3)nn12 (racemic) [Example 279, (rac)-2-(4-{3-[1-(6-Fluoro-1-methyl-1H-indazol-5-yl)-ethyl]-imidazo[1,2-b]pyridazin-6-yl}-pyrazol-1-yl)-ethanol] | 15 |
| CC(c1ccc2nccn2c1)c1cnc2ccc(Cl)nn12 (racemic) [Example 292, (rac)-6-Chloro-3-(1-imidazo[1,2-a]pyridin-6-yl-ethyl)-imidazo[1,2-b]pyridazine] | 80 |
| CC(c1ccc2nccn2c1)c1cnc2ccc(-c3cnn(C)c3)nn12 (racemic) [Example 293, (rac)-3-(1-Imidazo[1,2-a]pyridin-6-yl-ethyl)-6-(1-methyl-1H-pyrazol-4-yl)-imidazo[1,2-b]pyridazine] | 23 |
| Cc1cccc(-c2ccc3ncc(C(C)c4ccc5nccn5c4)n3n2)c1 (racemic) [Example 308, (rac)-3-(1-Imidazo[1,2-a]pyridin-6-yl-ethyl)-6-m-tolyl-imidazo[1,2-b]pyridazine] | 82 |
| CC(c1ccc2ncc(Br)n2c1)c1cnc2ccc(-c3cnn(C)c3)nn12 (racemic) [Example 309, (rac)-3-[1-(3-Bromo-imidazo[1,2-a]pyridin-6-yl)-ethyl]-6-(1-methyl-1H-pyrazol-4-yl)imidazo[1,2-b]pyridazine] | 16 |
| CC(c1ccc2ncc(Br)n2c1)c1cnc2ccc(-c3cnn(CCO)c3)nn12 (racemic) [Example 310, (rac)-2-(4-{3-[1-(3-Bromo-imidazo[1,2-a]pyridin-6-yl)-ethyl]-imidazo[1,2-b]pyridazin-6-yl}-pyrazol-1-yl)-ethanol] | 10 |
| Cn1cc(-c2ccc3ncc(Cc4ccc5ncccc5c4)n3n2)cn1 [Example 2, 6-[6-(1-Methyl-1H-pyrazol-4-yl)-imidazo[1,2-b]pyridazin-3-ylmethyl]-quinoline] | 14 |
| COc1ccc(Cc2cnc3ccc(-c4cnn(C)c4)nn23)cc1 [Example 4, 3-(4-methoxy-benzyl)-6-(1-methyl-1H-pyrazol-4-yl)-imidazo[1,2-b]pyridazine] | 280 |
| Cn1cc(-c2ccc3ncc(Cc4ccc(O)cc4)n3n2)cn1 [Example 5, 4-[6-(1-Methyl-1H-pyrazol-4-yl)-imidazo[1,2-b]pyridazin-3-ylmethyl]-phenol] | 53 |
| Cn1cc(-c2ccc3ncc(C(F)(F)c4ccc5ncccc5c4)n3n2)cn1 [Example 6, 6-{Difluoro-[6-(1-methyl-1H-pyrazol-4-yl)-imidazo[1,2-b]pyridazin-3-yl]-methyl}-quinoline] | 14 |
| c1cnc2ccc(Cc3cnc4ccc(-c5cnn(C6CCNCC6)c5)nn34)cc2c1 [Example 7, 6-[6-(1-piperidin-4-yl-1H-pyrazol-4-yl)-imidazo[1,2-b]pyridazin-3-ylmethyl]-quinoline] | 50 |
| Cn1cc(-c2ccc3ncc(Cc4ccc5occc5c4)n3n2)cn1 [Example 8, 3-Benzofuran-5-ylmethyl-6-(1-methyl-1H-pyrazol-4-yl)-imidazo[1,2-b]pyridazine] | 270 |
| Cn1cc(-c2ccc3ncc(Cc4ccc5nccn5c4)n3n2)cn1 [Example 10, 3-Imidazo[1,2-a]pyridin-6-ylmethyl-6-(1-methyl-1H-pyrazol-4-yl)-imidazo[1,2-b]pyridazine] | 21.5 |
| Cn1cc(-c2ccc3ncc(Cc4ccc5ncsc5c4)n3n2)cn1 [Example 12, 3-Benzothiazol-6-ylmethyl-6-(1-methyl-1H-pyrazol-4-yl)-imidazo[1,2-b]pyridazine] | 32.5 |
| Cc1nc2ccc(Cc3cnc4ccc(-c5cnn(C)c5)nn34)cc2s1 [Example 13, 3-(2-Methyl-benzothiazol-6-ylmethyl)-6-(1-methyl-1H-pyrazol-4-yl)-imidazo[1,2-b]pyridazine] | 73.5 |
| NC(=O)c1ccc(-c2ccc3ncc(Cc4ccc5ncccc5c4)n3n2)cc1Cl [Example 15, 2-Chloro-4-(3-quinolin-6-ylmethyl-imidazo[1,2-b]pyridazin-6-yl)-benzamide] | 9.5 |
| Cc1ccc(-c2ccc3ncc(Cc4ccc5ncccc5c4)n3n2)cc1 [Example 16, 6-(6-p-Tolyl-imidazo[1,2-b]pyridazin-3-ylmethyl)-quinoline] | 94.5 |
| c1ccc2cc(-c3ccc4ncc(Cc5ccc6ncccc6c5)n4n3)ccc2c1 [Example 17, 6-(6-Naphthalen-2-yl-imidazo[1,2-b]pyridazin-3-ylmethyl)-quinoline] | 210 |
| FC(F)(F)c1cccc(-c2ccc3ncc(Cc4ccc5ncccc5c4)n3n2)c1 [Example 18, 6-[6-(3-Trifluoromethyl-phenyl)-imidazo[1,2-b]pyridazin-3-ylmethyl]-quinoline] | 65.5 |
